According to PubChem BioAssay AID248 (DTP/NCI, 2004):
Where “and” joins values, the source holds several entries; their conditions need not be identical. Equal values may be shown once. Inconclusive results and toxic doses are left out. No stated cut-off is given here; in the data, active means T/C of 150% or more; inactive means T/C below 125%.

Tested on: L1210 leukemia ip in BDF1 mice, survival T/C
Assay: NCI In Vivo Anticancer Drug Screen. Data for tumor model L1210 Leukemia (intraperitoneal) in B6D2F1 (BDF1) mice
Conditions: endpoint: mean survival time, higher = longer survival
Outline: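 Transplantable tumor model; survival measured in treated vs vehicle control mice. Value = treated/control.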

[1] = dose: 100.0 mg/kg/injection, schedule: Q01DX001 (ip), vehicle: carboxymethylcellulose (CMC)
[2] = dose: 200.0 mg/kg/injection, schedule: Q01DX001 (ip), vehicle: carboxymethylcellulose (CMC)
[3] = dose: 400.0 mg/kg/injection, schedule: Q01DX001 (ip), vehicle: carboxymethylcellulose (CMC)
[4] = dose: 100.0 mg/kg/injection, schedule: Q01DX009 (ip), vehicle: saline with Tween-80
[5] = dose: 100.0 mg/kg/injection, schedule: Q04DX003 (ip), vehicle: saline with Tween-80
[6] = dose: 200.0 mg/kg/injection, schedule: Q01DX009 (ip), vehicle: saline with Tween-80
[7] = dose: 200.0 mg/kg/injection, schedule: Q04DX003 (ip), vehicle: saline with Tween-80
[8] = dose: 400.0 mg/kg/injection, schedule: Q01DX009 (ip), vehicle: saline with Tween-80
[9] = dose: 400.0 mg/kg/injection, schedule: Q04DX003 (ip), vehicle: saline with Tween-80
[10] = dose: 100.0 mg/kg/injection, schedule: Q04DX003 (ip), vehicle: saline
[11] = dose: 100.0 mg/kg/injection, schedule: Q04DX002 (ip), vehicle: Klucel (hydroxypropylcellulose) (HPC)
[12] = dose: 100.0 mg/kg/injection, schedule: Q04DX003 (ip), vehicle: Klucel (hydroxypropylcellulose) (HPC)
[13] = dose: 200.0 mg/kg/injection, schedule: Q04DX002 (ip), vehicle: Klucel (hydroxypropylcellulose) (HPC)
[14] = dose: 200.0 mg/kg/injection, schedule: Q04DX003 (ip), vehicle: Klucel (hydroxypropylcellulose) (HPC)
[15] = dose: 50.0 mg/kg/injection, schedule: Q04DX003 (ip), vehicle: saline

Measured: T/C

CCOC(=O)NNP(=O)(NNC(=O)OCC)c1ccccc1
inactive: [1] 101 % of control | dose: 100.0 mg/kg/injection, schedule: Q01DX009 (ip), vehicle: carboxymethylcellulose (CMC) 94 % of control | dose: 100.0 mg/kg/injection, schedule: Q04DX002 (ip), vehicle: carboxymethylcellulose (CMC) 98 % of control | dose: 100.0 mg/kg/injection, schedule: Q04DX003 (ip), vehicle: carboxymethylcellulose (CMC) 98 % of control | [2] 104 % of control | dose: 200.0 mg/kg/injection, schedule: Q01DX009 (ip), vehicle: carboxymethylcellulose (CMC) 94 % of control and 98 % of control | dose: 200.0 mg/kg/injection, schedule: Q04DX002 (ip), vehicle: carboxymethylcellulose (CMC) 91 % of control | dose: 200.0 mg/kg/injection, schedule: Q04DX003 (ip), vehicle: carboxymethylcellulose (CMC) 102 % of control | [3] 92 % of control | dose: 400.0 mg/kg/injection, schedule: Q01DX009 (ip), vehicle: carboxymethylcellulose (CMC) 108 % of control and 109 % of control | dose: 400.0 mg/kg/injection, schedule: Q04DX002 (ip), vehicle: carboxymethylcellulose (CMC) 94 % of control | dose: 400.0 mg/kg/injection, schedule: Q04DX003 (ip), vehicle: carboxymethylcellulose (CMC) 101 % of control

O=C1OCCN1c1ccc(S(=O)(=O)c2ccc(N3CCOC3=O)cc2)cc1
inactive: [4] 98 % of control | [5] 102 % of control | [6] 93 % of control | [7] 102 % of control | [8] 95 % of control | [9] 96 % of control

C[N+](C)(CC(=O)Nc1ccc(Cl)c(Cl)c1)CC(=O)c1ccc(Cl)cc1
inactive: dose: 6.25 mg/kg/injection, schedule: Q01DX009 (ip), vehicle: saline 96 % of control | dose: 12.5 mg/kg/injection, schedule: Q01DX009 (ip), vehicle: saline 96 % of control | dose: 25.0 mg/kg/injection, schedule: Q01DX009 (ip), vehicle: saline 89 % of control | [5] 92 % of control

COc1ccc(NC(=O)Oc2ccc(Cl)c(C)c2)c(OC)c1
inactive: dose: 100.0 mg/kg/injection, schedule: Q01DX009 (ip), vehicle: saline 118 % of control | dose: 200.0 mg/kg/injection, schedule: Q01DX009 (ip), vehicle: saline 114 % of control | dose: 400.0 mg/kg/injection, schedule: Q01DX009 (ip), vehicle: saline 108 % of control

CN(C)NC(=O)NCCCl
inactive: [10] 106 % of control | dose: 200.0 mg/kg/injection, schedule: Q04DX003 (ip), vehicle: saline 105 % of control | dose: 400.0 mg/kg/injection, schedule: Q04DX003 (ip), vehicle: saline 108 % of control

Cc1nc(N)[nH]c(=O)c1CCCNc1ccc(/C=C/C2(CCl)OCCO2)cc1
inactive: dose: 50.0 mg/kg/injection, schedule: Q01DX Z (ip), vehicle: carboxymethylcellulose (CMC) 92 % of control | dose: 200.0 mg/kg/injection, schedule: Q01DX Z (ip), vehicle: carboxymethylcellulose (CMC) 97 % of control | dose: 400.0 mg/kg/injection, schedule: Q01DX Z (ip), vehicle: carboxymethylcellulose (CMC) 94 % of control

CCOC(=O)/C(C#N)=C1/C=C(N)CCC1
inactive: [1] 98 % of control | [2] 94 % of control | [3] 100 % of control

COC(=O)c1ccccc1N=NNc1ccc(C)c(Cl)c1
inactive: dose: 100.0 mg/kg/injection, schedule: Q04DX002 (ip), vehicle: saline with Tween-80 94 % of control | dose: 200.0 mg/kg/injection, schedule: Q04DX002 (ip), vehicle: saline with Tween-80 94 % of control | dose: 400.0 mg/kg/injection, schedule: Q04DX002 (ip), vehicle: saline with Tween-80 87 % of control

CCCCOC(=O)C#CC(=O)OCCCC
inactive: dose: 6.25 mg/kg/injection, schedule: Q01DX009 (ip), vehicle: carboxymethylcellulose (CMC) 94 % of control | dose: 6.25 mg/kg/injection, schedule: Q04DX003 (ip), vehicle: carboxymethylcellulose (CMC) 100 % of control | dose: 12.5 mg/kg/injection, schedule: Q01DX009 (ip), vehicle: carboxymethylcellulose (CMC) 96 % of control | dose: 12.5 mg/kg/injection, schedule: Q04DX002 (ip), vehicle: carboxymethylcellulose (CMC) 95 % of control and 97 % of control | dose: 12.5 mg/kg/injection, schedule: Q04DX003 (ip), vehicle: carboxymethylcellulose (CMC) 97 % of control | dose: 25.0 mg/kg/injection, schedule: Q04DX002 (ip), vehicle: carboxymethylcellulose (CMC) 92 % of control and 95 % of control | dose: 25.0 mg/kg/injection, schedule: Q04DX003 (ip), vehicle: carboxymethylcellulose (CMC) 95 % of control | dose: 50.0 mg/kg/injection, schedule: Q04DX002 (ip), vehicle: carboxymethylcellulose (CMC) 90 % of control

c1ccc(CC2NC2c2ccccc2)cc1 (configuration not stated)
inactive: [11] 92 % of control | [12] 96 % of control | [13] 98 % of control | [14] 96 % of control | dose: 400.0 mg/kg/injection, schedule: Q04DX003 (ip), vehicle: Klucel (hydroxypropylcellulose) (HPC) 103 % of control

CN(C)/N=C\c1ccccc1Cl
inactive: dose: 12.5 mg/kg/injection, schedule: Q01DX009 (ip), vehicle: saline with Tween-80 91 % of control | dose: 25.0 mg/kg/injection, schedule: Q01DX009 (ip), vehicle: saline with Tween-80 102 % of control | dose: 50.0 mg/kg/injection, schedule: Q01DX009 (ip), vehicle: saline with Tween-80 100 % of control and 101 % of control | dose: 100.0 mg/kg/injection, schedule: Q01DX001 (ip), vehicle: saline with Tween-80 100 % of control | [5] 101 % of control | dose: 200.0 mg/kg/injection, schedule: Q01DX001 (ip), vehicle: saline with Tween-80 96 % of control | [7] 98 % of control | dose: 400.0 mg/kg/injection, schedule: Q01DX001 (ip), vehicle: saline with Tween-80 117 % of control

COC(=O)C(c1ccccc1)C1(O)CCN(Cc2ccccc2)CC1 (configuration not stated)
inactive: dose: 75.0 mg/kg/injection, schedule: Q04DX003 (ip), vehicle: Klucel (hydroxypropylcellulose) (HPC) 98 % of control | dose: 150.0 mg/kg/injection, schedule: Q04DX003 (ip), vehicle: Klucel (hydroxypropylcellulose) (HPC) 101 % of control | dose: 300.0 mg/kg/injection, schedule: Q04DX003 (ip), vehicle: Klucel (hydroxypropylcellulose) (HPC) 90 % of control

Cc1cc(C)c(C(=O)CBr)c(C)c1
inactive: [1] 112 % of control | dose: 100.0 mg/kg/injection, schedule: Q01DX001 (ip), vehicle: saline 101 % of control | [2] 106 % of control | dose: 200.0 mg/kg/injection, schedule: Q01DX001 (ip), vehicle: saline 101 % of control | [3] 101 % of control | dose: 400.0 mg/kg/injection, schedule: Q01DX001 (ip), vehicle: saline 110 % of control

OCC1(CO)CC=CCC1
inactive: dose: 25.0 mg/kg/injection, schedule: Q04DX003 (ip), vehicle: saline 95 % of control | [15] 105 % of control | [1] 103 % of control | [10] 94 % of control and 89 % of control | [2] 95 % of control | [3] 103 % of control

CC1(C(=O)O)CC(Cl)=CCC1C(=O)O (configuration not stated)
inactive: dose: 100.0 mg/kg/injection, schedule: Q01DX001 (ip), vehicle: steriod suspending solution 105 % of control | dose: 200.0 mg/kg/injection, schedule: Q01DX001 (ip), vehicle: steriod suspending solution 103 % of control | dose: 400.0 mg/kg/injection, schedule: Q01DX001 (ip), vehicle: steriod suspending solution 97 % of control

CCN(CC)C(=O)c1ccc([N+](=O)[O-])cc1
inactive: dose: 50.0 mg/kg/injection, schedule: Q01DX009 (ip), vehicle: Klucel (hydroxypropylcellulose) (HPC) 97 % of control | dose: 100.0 mg/kg/injection, schedule: Q01DX009 (ip), vehicle: Klucel (hydroxypropylcellulose) (HPC) 97 % of control | [12] 92 % of control | dose: 200.0 mg/kg/injection, schedule: Q01DX009 (ip), vehicle: Klucel (hydroxypropylcellulose) (HPC) 95 % of control | [14] 100 % of control

O=C1C=C(C23CC4CC(CC(C4)C2)C3)N2CCCc3cccc(c32)N1
inactive: [11] 97 % of control | [13] 105 % of control | dose: 400.0 mg/kg/injection, schedule: Q04DX002 (ip), vehicle: Klucel (hydroxypropylcellulose) (HPC) 97 % of control

CCN=C1N[N+]2=CCCCC2S1 (configuration not stated)
inactive: [15] 103 % of control | [10] 109 % of control

CCOC(=O)c1ccnc2ccc(O)cc12
inactive: [5] 104 % of control | [7] 96 % of control | [9] 95 % of control

OC(Cc1cnc2ccccc2n1)(C(F)(F)F)C(F)(F)F
inactive: [4] 98 % of control | [6] 94 % of control | [8] 95 % of control
